The source of these data is patent US9751853B2, “Solid forms of 3-(5-amino-2-methyl-4-oxo-4H-quinazolin-3-yl)-piperidine-2,6-dione, and their pharmaceutical compositions and uses” (Celgene Corporation, priority 2011, dated 2017).

The nature of series [1]: Dynamic Vapor Sorption (moisture sorption). Particulars: 95% RH, room temperature. Type of series: physicochemical. As for the experimental part: Dynamic Vapor Sorption (DVS): Hygroscopicity was determined on a Surface Measurement Systems DVS. Typically, a sample of about 2-10 mg was loaded into the DVS instrument sample pan. The sample was analyzed on a DVS automated sorption analyzer at room temperature. The relative humidity was increased from 0 to 95% RH at 10% RH step, then at 95% RH. The relative humidity was then decreased in a similar manner to accomplish a full adsorption/desorption cycle.

A short description of series [2]: Grinding studies, solid form by XRPD. Type of series: physicochemical. On the procedure:
Grinding Studies: Grinding experiments were performed using a Wig-L-Bug shaker. About 50 mg of Compound A hydrochloride was added to a polystyrene tube (1″×½″) with a Plexi bead (⅜″). The vial was capped and placed on the shaker for about 50 s. For wet grinding, drops of water were added to the vial and a wet paste was formed prior to placing on the shaker.
X-ray Powder Diffraction (XRPD): XRPD analysis was conducted on a Thermo ARL X'TRA™ X-ray powder diffractometer using Cu Kα radiation at 1.54 Å. The instrument was equipped with a fine focus X-ray tube. The voltage and amperage of X-ray generator were set at 45 kV and 40 mA, respectively. The divergence slices were set at 4 mm and 2 mm and the measuring slices were set at 0.5 mm and 0.2 mm. Diffracted radiation was detected by a peltier-cooled Si(Li) solid-state detector. A theta-two theta continuous scan at 2.40°/min (0.5 sec/0.02° step) from 1.5°2θ to 40°2θ was used. A sintered alumina standard was used to check the peak position. In general, positions of XRPD peaks are expected to individually vary on a measurement-by-measurement basis by about +0.2°2θ. In general, as understood in the art, two XRPD patterns match one another if the characteristic peaks of the first pattern are located at approximately the same positions as the characteristic peaks of the second pattern. As understood in the art, determining whether two XRPD patterns match or whether individual peaks in two XRPD patterns match may require consideration of individual variables and parameters such as, but not limited to, preferred orientation, phase impurities, degree of crystallinity, particle size, variation in diffractometer instrument setup, variation in XRPD data collection parameters, and/or variation in XRPD data processing, among others. The determination of whether two patterns match may be performed by eye and/or by computer analysis.

Structures are written as SMILES.

On to `Cc1nc2cccc(N)c2c(=O)n1C1CCC(=O)NC1=O` (stereo not shown) [Form D, 3-(5-amino-2-methyl-4-oxo-4H-quinazolin-3-yl)-piperidine-2,6-dione], for which the “Moisture Sorption at 95% RH” value in series [1] (listed as D) is 4.11 wt %. With `Cc1nc2cccc(N)c2c(=O)n1C1CCC(=O)NC1=O` (stereo not shown) [Form E, 3-(5-amino-2-methyl-4-oxo-4H-quinazolin-3-yl)-piperidine-2,6-dione], the “Moisture Sorption at 95% RH” value in series [1] (listed as E) is recorded as 0.26 wt %. On to `Cc1nc2cccc(N)c2c(=O)n1C1CCC(=O)NC1=O` (stereo not shown) [Form A, 3-(5-amino-2-methyl-4-oxo-4H-quinazolin-3-yl)-piperidine-2,6-dione], for which the “XRPD Result after grinding” value in series [2] (Dry grinding) and in series [2] (Wet grinding (paste)) was “Form A1” each time.

For the compound `Cc1nc2cccc(N)c2c(=O)n1C1CCC(=O)NC1=O` (stereo not shown) [Form C, 3-(5-amino-2-methyl-4-oxo-4H-quinazolin-3-yl)-piperidine-2,6-dione], the “Moisture Sorption at 95% RH” value in series [1] (listed as C) was 0.17 wt %.

Regarding `Cc1nc2cccc(N)c2c(=O)n1C1CCC(=O)NC1=O` (stereo not shown) [Compound A, 3-(5-amino-2-methyl-4-oxo-4H-quinazolin-3-yl)-piperidine-2,6-dione], the “Moisture Sorption at 95% RH” value in series [1] is listed as 3.19 wt %.

On to `Cc1nc2cccc(N)c2c(=O)n1C1CCC(=O)NC1=O` (stereo not shown) [Form B, 3-(5-amino-2-methyl-4-oxo-4H-quinazolin-3-yl)-piperidine-2,6-dione], for which, in series [1] (listed as B), the “Moisture Sorption at 95% RH” value was found to be 0.11 wt %.
